# Assay results taken from patent publication US20210113505A1, “METHODS OF TREATING HAIR RELATED CONDITIONS” (Nogra Pharma Limited, priority 2012, published 2021).
# Entries after “also recorded” stand apart in the source; their conditions may differ.
# Columns and labels:
# Assay type in all cases: cell-based
# [1] = tested on: keratin K15 expression; experiment: K15 quantitative immunohistochemistry in organ-cultured human scalp hair follicles; details: for Keratin-15 immunoreactivity: all concentrations tested, human anagen VI scalp HF organ culture, vs vehicle
# Procedure: (§1) Normal human scalp skin was obtained from 6 women undergoing routine face-lift surgery after informed consent. All experiments were performed according to Helsinki guidelines, with appropriate ethics committee approval.
# (§2) Normally pigmented anagen VI hair follicles (HFs) (grey/white HFs were excluded from the study) were microdissected from normal human scalp skin and organ cultured following the Philpott model. Compound A or vehicle was administered once for each change of medium (i.e. every 48 h/72 h).
# To investigate keratin K15 expression, the tyramide signal amplification method was used as previously described (Kloepper et al., 2008). Briefly, acetone fixed cryosections were washed three times for 5 min using TNT (Tris-HCL NaCl Tween) buffer (0.1 mol/l Tris-HCl, pH 7.5; containing 0.15 mol/l NaCl and 0.05% Tween 20). Next, horseradish peroxidase was blocked by washing with 3% H2O2 in phosphate-buffered saline (PBS) for 15 min. Preincubation was performed with the incubation of avidin and biotin for 15 min and 5% goat normal serum in TNT for 30 min with washing steps in between. Mouse anti-human K15 (clone LHK15, Chemicon, Billerica, USA) was diluted in TNT and incubated overnight at 4° C. followed by a biotinylated secondary antibody goat anti-mouse (1:200 in TNT) for 45 min at RT. Next, streptavidin horseradish peroxidase (TSA kit; Perkin-Elmer, Boston, Mass., USA) was administered (1:100 in TNT) for 30 min at RT. […] The intensity of the immunostaining was quantified by ImageJ software (National Institutes of Health). The staining intensity of defined reference regions in the HF was measured and compared between control and N Compound A-treated groups. The percentage of K15-positive cells in comparison to the total amount of cells in the ORS was calculated.
# Statistical analysis was performed using a two-tailed Student's t-test for unpaired samples. […] In order to avoid data distortion by individual experiments, rigid exclusion criteria were defined that allowed to exclude one individual experiment (out of 5-6) per read-out parameter. […]
# [2] = tested on: K19 expression; experiment: K19 quantitative immunohistochemistry in organ-cultured human scalp hair follicles; details: human scalp HF organ culture; for number of K19-positive cells relative to control: cells in the ORS
# Procedure: as §1, §2
# A previously described protocol was used to investigate K19 expression (Kloepper et al., 2008). Briefly, acetone-fixed cryosections were pre-treated with goat serum (10% in Tris-buffered saline, Dako). The sections were incubated first with primary antibodies against K19 (mouse anti-human: K19-1:10; overnight, at 4° C.; PROGEN, Heidelberg, Germany;) and then with FITC-labeled goat anti-mouse (1:200 in TBS, for 45 min, RT, Jackson ImmunoResearch) immunoglobulins as secondary antibodies. Counterstaining was performed with DAPI (Boehringer Mannheim, Mannheim, Germany). The intensity of this immunostaining was quantified by ImageJ software (National Institutes of Health). The staining intensity of defined reference regions in the HF was measured and compared between control and Compound A-treated groups. The percentage of K19-positive cells in comparison to the total amount of cells in the ORS was calculated.
# Statistical analysis was performed using a two-tailed Student's t-test for unpaired samples. For meta-analysis purposes, a total of six assays (each with HFs from a different female individual) were run. […] In order to avoid data distortion by individual experiments, rigid exclusion criteria were defined that allowed to exclude one individual experiment (out of 5-6) per read-out parameter. Since these exclusion criteria differed for each study parameter, different experiments (i.e. one out of 6, and one out of 5 in the case of keratin 19 analysis) were excluded for each assay parameter. […]
# [3] = tested on: human scalp hair follicles; experiment: LDH measurement in supernatant of hair follicle organ culture (cytotoxicity); details: for LDH activity in the supernatant: 0.1 mM dose, day 6, pooled data
# Procedure: (§3) Details regarding tissue specimen origin used in the present example are as described in Example 2 above.
# LDH activity in the supernatant can serve as an indicator of cytotoxicity and was measured following the manufacturer's instructions (Cytotoxicity Detection Kit; Roche, Mannheim, Germany). The absorbance of the samples was measured at 490 nm using an ELISA plate-reader.
# (§4) To evaluate apoptotic cells in colocalization with a proliferation marker Ki-67, a Ki-67/terminal dUTP nick-end labeling (TUNEL) double-staining method was used. Cryostat sections were fixed in paraformaldehyde and ethanol-acetic acid (2:1) and labeled with a digoxigenin-deoxy-UTP (ApopTag fluorescein in situ apoptosis detection kit; Intergen, Purchase, N.Y.) in the presence of terminal deoxynucleotidyl transferase, followed by incubation with a mouse anti-Ki-67 antiserum (1:20 in PBS overnight at 4 C; Dako, Glostrup, Denmark). TUNEL-positive cells were visualized by an antidigoxigenin fluorescein isothiocyanate-conjugated antibody (ApopTag kit), whereas Ki-67 was detected by a rhodamine-labeled goat antimouse antibody (Jackson ImmunoResearch, West Grove, Pa.). Negative controls were performed by omitting terminal deoxynucleotidyl transferase and the Ki-67 antibody. Counterstaining was performed with 4′,6-diamidino-2-phenylindole (DAPI) (Roche Molecular Biochemicals GmbH, Mannheim, Germany). Quantitative immunohistomorphometry was performed; Ki-67-, TUNEL-, or DAPI-positive cells were counted in a previously defined reference region of the HF matrix, and the percentage of Ki-67/TUNEL-positive cells were determined. Statistical analysis was performed using a two-tailed Student's t-test for unpaired samples. For meta-analysis purposes, a total of six assays (each with HFs from a different female individual) were run. In order to avoid data distortion by individual experiments, rigid exclusion criteria were defined that allowed to exclude one individual experiment (out of 5-6) per read-out parameter. […]
# [4] = tested on: human scalp hair follicles; experiment: Hair shaft elongation of organ-cultured hair follicles
# Procedure: as §3
# Hair shaft length measurements of HFs were performed on individual HFs using a Zeiss inverted binocular microscope with an eyepiece measuring graticule.
# as §4, with “parameter. Since these exclusion criteria differed for each study parameter, different experiments (i.e. one out of 6) were excluded for each assay parameter.” for “parameter.”
# [5] = tested on: human scalp hair follicles; experiment: HF cycle staging (anagen/catagen) of organ-cultured hair follicles; details: all concentrations, pooled data
# Procedure: as §3
# HF cycle staging was carried out according to previously defined morphological criteria, and the percentage of HFs in anagen and early, mid, or late catagen was determined.
# To evaluate apoptotic cells in colocalization with a proliferation marker Ki-67, a Ki-67/terminal dUTP nick-end labeling (TUNEL) double-staining method was used. […] TUNEL-positive cells were visualized by an antidigoxigenin fluorescein isothiocyanate-conjugated antibody (ApopTag kit), whereas Ki-67 was detected by a rhodamine-labeled goat antimouse antibody (Jackson ImmunoResearch, West Grove, Pa.). […] Quantitative immunohistomorphometry was performed; Ki-67-, TUNEL-, or DAPI-positive cells were counted in a previously defined reference region of the HF matrix, and the percentage of Ki-67/TUNEL-positive cells were determined. […] In order to avoid data distortion by individual experiments, rigid exclusion criteria were defined that allowed to exclude one individual experiment (out of 5-6) per read-out parameter. […]
# [6] = listed as N-acetyl-(R)-(−)-3-(4-aminophenyl)-2-methoxypropionic acid
structure (smiles),measurement,setting,value
"CO[C@H](Cc1ccc(NC(C)=O)cc1)C(=O)O [Compound A, N-acetyl-(R)-(−)-3-(4-aminophenyl)-2-methoxypropionic acid]",Keratin-15 immunoreactivity,[1],strongly stimulated
same,Keratin-15 immunoreactivity,[1]; [6],stimulation
same,number of K15-positive cells,"[1]; human scalp HF organ culture, cells in the ORS",did not increase
same,Keratin 19 immunoreactivity,"[2]; all concentrations tested, vs vehicle",strongly stimulated
same,number of K19-positive cells relative to control,[2],stimulating effect
same,number of K19-positive cells relative to control,[2]; [6],increased numbers
same,LDH activity in the supernatant,[3],slight increase
same,LDH activity in the supernatant,[3]; [6],increase
same,Compound-associated HF toxicity,"[3]; under assay conditions, from LDH activity","very low, if any"
same,hair shaft elongation,"[4]; high dose (1 mM), day 6, pooled data","slightly, but significantly, inhibited; also recorded: inhibits"
same,hair shaft elongation,"[4]; high dose (1 mM), day 6, pooled data, listed as N-acetyl-(R)-(−)-3-(4-aminophenyl)-2-methoxypropionic acid",inhibition
same,hair shaft elongation,[4]; lower concentrations (below 1 mM),did not have an effect
same,hair cycle effect (catagen induction),[5],induced catagen; also recorded: catagen-inducing effect
same,hair cycle effect (catagen induction),[5]; [6],trend toward catagen
